Here are results for two molecules from patent publication US5354738A, “Platelet aggregation inhibitors” (G. D. Searle & Co., priority 1992, dated 1994).

The test system of this assay is Dog PRP. Description: In-Vitro Platelet Aggregation in PRP (ADP-induced, dog platelet-rich plasma). To be noted: Canis lupus familiaris, 1 minute preincubation at 37° C., IC50 by linear regression of dose response curve. Type of assay: cell-based. The method, then: In-Vitro Platelet Aggregation in PRP
Healthy male or female dogs were fasted for 8 hours prior to drawing blood; then 30 ml whole blood was collected using a butterfly needle and 30 cc plastic syringe with 3 ml of 0.129M buffered sodium citrate (3.8%). The syringe was rotated carefully as blood was drawn to mix the citrate. Platelet-rich plasma (PRP) was prepared by centrifugation at 975×g for 3.17 minutes at room temperature, allowing the centrifuge to coast to a stop without braking. The PRP was removed from the blood with a plastic pipette and placed in a plastic capped, 50 ml Corning conical sterile centrifuge tube which was held at room temperature. Platelet poor plasma (PPP) was prepared by centrifuging the remaining blood at 2000×g for 15 minutes at room temperature allowing the centrifuge to coast to a stop without braking. The PRP was adjusted with PPP to a count of 2-3×10^8 platelets per ml. 400 μl of the PRP preparation and 50 μl of the compound to be tested or saline were preincubated for 1 minute at 37° C. in a BioData aggregometer (BioData, Horsham, Pa.). 50 μl of adenosine 5'-diphosphate (ADP) (50 μm final concentration) was added to the cuvettes and the aggregation was monitored for 1 minute. All compounds are tested in duplicate. Results are calculated as follows: […]

pIC50: −log10 of the molar value.

By pIC50 is commonly meant −log10 of the IC50, conventionally taken in molar units. The low end stands for a high IC50, the high end for a low IC50.

The molecule `N=C(N)c1ccc(CCCCNC(=O)N[C@@H](CC(=O)O)C(=O)N[C@@H](Cc2c[nH]c3ccccc23)C(=O)O)cc1` [Example 3, N-[N-[[[4-[4-(aminoiminomethyl)phenyl]butyl]amino]carbonyl]-L-α-spartyl]-L-tryptophane] had a pIC50 of 6.70.
Under `N=C(N)c1ccc(CCCCNC(=O)N[C@@H](CC(=O)O)C(=O)N[C@@H](Cc2ccccc2)C(=O)O)cc1` [Example 2, N-[N-[[[4-[4-(aminoiminomethyl)phenyl]butyl]amino]-carbonyl]-L-α-aspartyl]-L-phenylalanine] stands 6.12.
